Starred links: 1 amine or outer side, 2 acyl side, 3 side chain; linkers in the order of their positions; H or OH if unused. Non-standard residues stand in square brackets, D forms with d. Residues, ends and D or L forms follow the SMILES beside them. *: point of attachment. γGlu = O=C(O)[C@H](CCC(=O)[*:2])N[*:1]; Palmitoyl = CCCCCCCCCCCCCCCC(=O)*; Myristoyl = CCCCCCCCCCCCCC(=O)*; Decanoyl = CCCCCCCCCC(=O)*
Legend:
[1] = Hydrophobicity: retention time during reverse phase HPLC; type: physicochemical; settings: Acquity CSH C18; pH 7.2 buffer/CH3CN gradient; 40° C.
Description: The retention time (RT) during reverse phase HPLC was taken as a measure of hydrophobicity of an N-terminally modified peptide or oligopeptide of the invention, where the connection is: The longer the RT, the more hydrophobic N-terminally modified peptide or oligopeptide. The following running conditions were applied during HPLC analysis:
Buffer B: 70% (v/v) aq. CH3CN

[2] = tested on: Chymotrypsin; test: Inhibition of enzymatic degradation of a model GLP-1 (FRET substrate) by chymotrypsin; type: biochemical; settings: for Slope of the initial increase in fluorescence obtained during incubation with 0.001 mg/ml Chymotrypsin: compound 1 mM; for EC50: read-out: EC50 Chymotrypsin (0.001 mg/ml), 0.001 mg/ml chymotrypsin, 37° C., ± standard error if at least 3 measurements
Summary of the method: (§1)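 Initial-rate slopes of fluorescence rise (320 nm ex, 405 nm em), fitted over the linear early phase and averaged from duplicates, were plotted against inhibitor concentration and fitted logistically to give EC50. Reactions ran at 37° C in Dulbecco's PBS, with MCA/DNP GLP-1 FRET substrate added as 10 μl of 100 μM stock.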

[3] = Stability of N-terminally acylated peptides or oligopeptides in GI juice; type: in vitro ADME; settings: GI juice (jejunum extract); degradation of the compound itself in jejunum extract from rat; read-out: t 1/2 in rat GI juice
Method: (§2) 96 well plates were coated by incubating with 0.4% Bovine serum albumin (BSA) solution for minimum of 60 min. To each well, 210 μl of buffer (Hank's balanced salt solution-4-(2-hydroxyethyl)-1-piperazineethanesulfonic acid (HBSS-HEPES) buffer) with 0.005% Tween 20 and 0.001% BSA, pH 6.5 precipitated with 3 vol. cold 96% ethanol (EtOH) w. 1% TFA), 30 μl of a substrate (100 μM insulin analogue or GLP-1 analogue in buffer) and 30 μl of N-terminally acylated peptide or oligopeptide of the invention (10 mM) were added. The plates were pre-incubated (before adding GI juice) for 60 min at 37° C. After addition of 30 μl of GI juice (10-times diluted in buffer), the plates were incubated for 60 min/37° C. on shaker. Samples (40 μl) were taken at 0, 5, 10, 20, 30 and 60 min, stopped with 3 vol. cold 96% EtOH w. 1% TFA and spun down in plates (4500 rpm for 10 min). Samples were diluted 5 times with the buffer prior to LC-MS analysis. Standard samples (0.1, 0.5, 1.0, 5.0, 10.0 μM) were prepared and treated as the samples. Standard curve was analysed both at the beginning and the end of the sequence. Two replicates of each tested conditions were included. Ion suppression was assessed by analyzing a standard at 1 μM and at 10 μM with 1 mM inhibitor present. Intact insulin or GLP-1 analoues were determined at each sample. The results were plotted against the incubation time. Half-lives of the insulin or GLP-1 analogues were determined by nonlinear regression of the results using, for example Graph Pad Prism. The half-lives were expressed relative to the half-live of the insulin or GLP-1 analogue without inhibitor present by dividing the half-lives obtained in the presence of inhibitor with those obtained in the absence of inhibitors. GI juice was prepared from male Sprague Dawley rats (200-250 g) by excising approximately 20 cm piece of mid jejunum and rinsing the inside with 2.5 ml 0.9% sodium chloride solution. The sodium chloride solution was collected in a centrifuge tube, pooled from all rats (20) and centrifuged at 4500 rpm./10 min/4° C. The supernatant was aliquoted in tubes and stored at −80° C.
Degradation of the N-terminally fatty acid modified peptide or oligopeptide of the invention themselves in jejunum extract from rat (GI juice) and determination of half-lives, was measured as described above (example 200).

[4] = tested on: Trypsin; test: Inhibition of enzymatic degradation of a model GLP-1 (FRET substrate) by trypsin; type: biochemical; settings: for Slope of the initial increase in fluorescence obtained during incubation with 0.001 mg/ml Trypsin: compound 1 mM; for EC50: read-out: EC50 Trypsin (0.001 mg/ml), 0.001 mg/ml trypsin, 37° C.
Summary of the method: as §1

[5] = tested on: GI juice; test: Inhibition of GI juice degradation of insulin analogue and GLP-1 analogue; type: biochemical; settings: rat GI juice
Method: as §2, with “To each well, 210 μl of buffer (Hank's balanced salt solution-4-(2-hydroxyethyl)-1-piperazineethanesulfonic acid (HBSS-HEPES) buffer) with 0.005% Tween 20 and 0.001% BSA, pH 6.5 precipitated with 3 vol. cold 96% ethanol (EtOH) w.” left out, “Samples (40 μl) were taken at 0, 5, 10, 20, 30 and 60 min, stopped with 3 vol. cold 96% EtOH w.” left out, “Half-lives of the insulin or GLP-1 analogues were determined by nonlinear regression of the results using, for example Graph Pad Prism.” left out
A14E, B25H, B29K(N(eps)Octadecanedioyl-γGlu-OEG-OEG), desB30 human insulin and N-epsilon26-[2-(2-{2-[2-(2-{2-[(S)-4-Carboxy-4-(17-carboxyheptadecanoylamino)-butyrylamino]ethoxy}ethoxy)acetylamino]ethoxy}ethoxy)acetyl][Aib8,Arg34]GLP-1-(7-37) were used as standards in this assay.
For experiments repeated more than two times, standard deviation is given

[6] = target: Chymotrypsin; test: Inhibition of enzymatic degradation of a chromogenic substrate (Example 202); type: biochemical; settings: substrate N-succinyl-Ala-Ala-Pro-Phe-p-Nitroanilide
Description: The use of chromogenic substrates to monitor activity of proteolytic enzymes is known in the field (for example DelMar, E. G., et al., Anal. Biochem., 99, 316-320, (1979)). For example, N-succinyl-Ala-Ala-Pro-Phe-p-Nitroanilide is commonly used substrate for measuring chymotrypsin activity. Enzymatic cleavage of 4-nitroanilide substrates yields 4-nitroaniline (yellow color under alkaline conditions).
An assay following the increase in absorbance at 395 nm as a function of time was established in 96 well format using Varioskan Flash Multimode Meter (Thermo Scientific). Each well contained 70 μl of Dulbecco's phosphate buffer saline (Invitrogen catalogue #14190-094), 10 μl of N-succinyl-Ala-Ala-Pro-Phe-p-Nitroanilide (Sigma cat# S 7388) in DMSO (different concentrations were used in order to obtain the inhibition constant), 10 μl of N-terminally acylated peptide or oligopeptide of the invention in varying concentration and 10 μl of a stock solution of an enzyme (chymotrypsin, trypsin, elastase, etc.). The incubations were performed at 37° C. Absorbance at 395 nm was measured immediately after addition of the enzyme to the 96 well plate and also every minute for the next 80 minutes. The concentration of the enzyme was optimized to allow determination of slopes for the time course of initial absorbance increase with and without added inhibitors. The slopes were determined by linear regression of the linear part of the fluorescence trace (for example, the first 10 min of the reaction). Each assay was performed in duplicate and average of the two traces was included in the calculations. The relative effect of N-terminally acylated peptide or oligopeptides of the invention on enzymatic degradation of N-succinyl-Ala-Ala-Pro-Phe-p-Nitroanilide was obtained by comparison of the slopes achieved by the same concentration of the N-terminally acylated peptide or oligopeptides. […] This was done by plotting the slopes achieved with different concentrations of the N-terminally acylated peptide or oligopeptides of the invention as a function of their concentrations and fitting the experimental results using, for example, sigmoidal logistic regression (2 parameters, Sigma Plot v 11). Inhibition constants for the interaction between the N-terminally acylated peptide or oligopeptides of the invention and proteolytic enzymes were also obtained by performing the assay described above with varying concentrations of the inhibitor and substrate and analyzing the results, for example, by double reciprocal transformation as known to the person skilled in the art and described for example in Hubalek, F. et al., J. Med. Chem. 47, 1760-1766 (2004).

Molecule | RT (retention time during reverse phase HPLC as a measure of hydrophobicity) [1] [min] | EC50 [2] [µM] | half-life [3] [min] | EC50 [4] [µM] | further results
CCCCCCCCCCCCCC(=O)N[C@H](C)C(=O)N[C@H](C)C(=O)N1CCC[C@@H]1C(=O)N[C@H](Cc1ccccc1)C(=O)O [Example 2, N-tetradecanoyl-DAla-DAla-DPro-DPhe-OH] (Myristoyl-[dA][dA][dP][dF]-OH) | 9.74 | 85 | 610 | 112 | Slope of the initial increase in fluorescence obtained during incubation with 0.001 mg/ml Chymotrypsin [2]: 0.05; Slope of the initial increase in fluorescence obtained during incubation with 0.001 mg/ml Trypsin [4]: 0.15
CCCCCCCCCCCCCC(=O)N[C@@H](CCC(=O)N[C@@H](C)C(=O)N1CCC[C@H]1C(=O)N[C@@H](Cc1ccccc1)C(=O)O)C(=O)O [Example 23, N-tetradecanoyl-γGlu-Ala-Pro-Phe-OH] ({Myristoyl-γGlu}-Ala-Pro-Phe-OH) | 5.29 | 144 | 4.4 | 44 | –
CCCCCCCCCCCCCC(=O)N[C@@H](CCC(=O)N[C@H](C)C(=O)N1CCC[C@@H]1C(=O)N[C@H](Cc1ccccc1)C(=O)O)C(=O)O [Example 148, N-tetradecanoyl-γGlu-DAla-DPro-DPhe-OH] ({Myristoyl-γGlu}-[dA]-[dP]-[dF]-OH) | – | 322 | > 1000 | – | –
N-decanoyl-Ala-Ala-Pro-Phe-OH (Decanoyl-AAPF-OH) [Example 33] | 4.93 | – | – | – | Ki [6]: 850 µM
Soya bean trypsin inhibitor: soya bean trypsin inhibitor (Kunitz type, SBTI), protease inhibitor described in the public domain (protein, UniProt P01070 25-205, looked up) Trypsin inhibitor A: DFVLDNEGNPLENGGTYYILSDITAFGGIRAAPTGNERCPLTVVQSRNELDKGIGTIISSPYRIRFIAEGHPLSLKFDSFAVIMLCVGIPTEWSVVEDLPEGPAVKIGENKDAMDGWFRLERVSDDEFNNYKLVFCPQQAEDDKCGDIGISIDHDDGTRRLVVSKNKPLVVQFQKLDKESL | – | – | – | – | Half Life of insulin analogue ([5]; inhibitor 0.1%, ± standard deviation): 505.3 ± 309.2 min

Continued, in another order:

RT (retention time during reverse phase HPLC as a measure of hydrophobicity) [1] [min] | EC50 [2] [µM] | half-life [3] [min] | EC50 [4] [µM] | Molecule | further results
5.19 | – | – | – | CCCCCCCCCCCCCC(=O)N[C@@H](CCC(=O)O)C(=O)N[C@@H](C)C(=O)N[C@@H](C)C(=O)N1CCC[C@H]1C(=O)N[C@@H](Cc1ccccc1)C(=O)O [Example 13, N-tetradecanoyl-Glu-Ala-Ala-Pro-Phe-OH] (Myristoyl-EAAPF-OH) | Half Life fold increase (over solution w/o N-terminally acylated (oligo)peptide) ([5]; compound 1 mM): 3.4; Half Life of insulin analogue ([5]; compound 1 mM, 37° C.): 7.2 min; Slope of the initial increase in fluorescence obtained during incubation with 0.001 mg/ml Chymotrypsin [2]: 0.00; Slope of the initial increase in fluorescence obtained during incubation with 0.001 mg/ml Trypsin [4]: 0.12
7.5 | 45 | – | 40 | CCCCCCCCCCCCCCCC(=O)N[C@@H](CCC(=O)N[C@@H](C)C(=O)N[C@@H](C)C(=O)N1CCC[C@H]1C(=O)N[C@@H](Cc1ccccc1)C(=O)O)C(=O)O [Example 135, N-hexadecanoyl-γGlu-Ala-Ala-Pro-Phe-OH] ({Palmitoyl-γGlu}-AAPF-OH) | Half Life fold increase (over solution w/o N-terminally acylated (oligo)peptide) ([5]; compound 1 mM): 3.8; Half Life of GLP-1 analogue ([5]; compound 1 mM, 37° C.): 0.9 min; Half Life of insulin analogue ([5]; compound 1 mM, 37° C.): 9.2 min
– | 32 | 4.5 | 102 | CCCCCCCCCCCCCC(=O)N[C@@H](Cc1c[nH]cn1)C(=O)N[C@@H](C)C(=O)N[C@@H](CCCNC(=N)N)C(=O)N1CCC[C@H]1C(=O)N[C@@H](Cc1ccccc1)C(=O)O [Example 178, N-tetradecanoyl-His-Ala-Arg-Pro-Phe-OH] (Myristoyl-HARPF-OH) | –
